According to patent US5522922A, “Aqueous ink composition” (priority 1993, dated 1996):

Test: LD50, oral dosing of mice or rabbits
Conditions: in vivo
Text: LD50 means a lethal dose (mg/kg) necessary to kill more than half of examined mice or rabbits when the mice or rabbits are orally dosed with a certain concentration. Safety improves as LD50 increases.
As is clear from Table 11, an aqueous ink composition of the present invention is 5 to 8 times more safe than a conventional aqueous ink composition. Therefore, to maintain this standard of safety, triethanolamine used in the present invention is limited to triethanolamine meeting the standards described in the present specification and the Japanese Standards of Cosmetic Ingredient (Yakuji Nippo, Ltd., second edition).

`CCN(CC)N=O` [Diethyl nitrosamine, diethyl nitrosamine] showed an LD50 of 15 mg/kg.
